In ChEMBL document CHEMBL3046712, “Molecular simulations of bergenin as a new urease inhibitor” (Med Chem Res, 2012) one finds IC50 and inhibition data, which are given here for 2 compounds.

The nature of experiment [1]: (§1) Inhibition of Sporosarcina pasteurii urease using urea as substrate after 15 min.
In the next experiment the test system is Sporosarcina pasteurii. The experiment is described as §1.

The compound `COc1c(O)cc2c(c1O)[C@@H]1O[C@H](CO)[C@@H](O)[C@H](O)[C@H]1OC2=O` [BERGENIN] had a concentration for half-maximal inhibition (IC50) in experiment [1] of 21.7 µM. This compound also returned an inhibition in the experiment with Sporosarcina pasteurii of 78%.
Take `NC(N)=S` [THIOUREA]: in experiment [1], the IC50 came to 25 µM.
